Source: patent US7649113B2, “Mono, di and tri cyclic compounds useful for lowering IgE concentrations” (The Research Foundation of State University of New York, priority 2003, dated 2010)

What was measured:
dogs = conditions: cited from earlier work
[1] = tested on: normal mouse spleen cells; conditions: cited from earlier work
mice = conditions: cited from earlier work
[2] = tested on: PBMC (peripheral blood mononuclear cells); conditions: patient PBMC; dose dependent manner; cited from earlier work
IgE production [3] = experiment: Suppression of human IgE production in vitro; format: cell-based
[4] = tested on: human whole blood cultures; conditions: physiological doses; cited from earlier work
[5] = tested on: allergic steroid dependent asthmatic patients; conditions: oral administration; cited from earlier work
[6] = tested on: rheumatoid arthritis (RA) patients; conditions: cited from earlier work
IgE production [7] = experiment: Suppression of murine IgE production in vivo
[8] = tested on: inducible nitric oxide synthase (iNOS); conditions: murine macrophages; cited from earlier work
IgE production [9] = experiment: Suppression of human IgE production in vivo

SMILES	severity of osteoarthritis (OA) (dogs)	PHA/IL-4 mediated IgE response [1]	ability to mount delayed-type hypersensitivity responses (mice)	anti-CD40 rhIL-4 mediated in vitro induction of IgE responses [2]	human IgE production (IgE production [3])	mitotic responses to phytohemagglutinin [4]	oral corticosteroid requirements [5]	symptoms (A.M. and P.M.) [5]	therapy for early RA ([6]; RA patients)	side effects ([6]; mild and moderate RA patients)	murine IgE production (IgE production [7])	inducible nitric oxide synthase (iNOS) expression [8]	human IgE production (IgE production [9])
C[C@H]1c2cccc(O)c2C(=O)C2=C(O)[C@]3(O)C(=O)C(C(N)=O)=C(O)[C@@H](N(C)C)[C@@H]3[C@@H](O)[C@@H]21 [doxycycline]	reduced	suppresses	inhibit	suppress	suppresses	–	–	–	–	–	–	–	–
CN(C)c1ccc(O)c2c1C[C@H]1C[C@H]3[C@H](N(C)C)C(=O)C(C(N)=O)=C(O)[C@@]3(O)C(=O)C1=C2O [minocycline]	reduced	–	–	suppress	suppresses	inhibits	decreased	improved their symptoms	appears to be an effective therapy	no side effects	suppresses	inhibits	suppresses
